For five compounds, Ki results are on record in US20080306064A1, “Benzimidazole Derivatives” (priority 2005, published 2008).

The experiment concerns the target T1, Human recombinant CXCR2 receptor (Homo sapiens, UniProt P25025).
T1 construct: Biosignal Packard Inc. (Kb, GTPγS assay); host or cells: CHO-K1
T1 sequence (P25025 1-360): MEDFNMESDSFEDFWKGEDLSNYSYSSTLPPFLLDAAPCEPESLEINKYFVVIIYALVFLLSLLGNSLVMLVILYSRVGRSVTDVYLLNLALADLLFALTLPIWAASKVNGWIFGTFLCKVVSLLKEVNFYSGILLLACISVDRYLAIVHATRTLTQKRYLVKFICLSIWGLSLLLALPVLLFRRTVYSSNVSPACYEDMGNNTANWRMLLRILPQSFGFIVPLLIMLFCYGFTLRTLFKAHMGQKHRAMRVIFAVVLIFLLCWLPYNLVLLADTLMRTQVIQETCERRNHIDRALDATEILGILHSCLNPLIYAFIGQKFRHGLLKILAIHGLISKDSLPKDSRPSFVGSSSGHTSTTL
Description: Receptor Binding Assay ([125I] IL-8, Ki) or [35S]-GTPγS Binding Assay (Kb) for human CXCR2 receptor. The note with it: CHO-K1 membranes expressing human CXCR2; Ki from Receptor Binding Assay, Kb from [35S]-GTPγS Binding Assay; table does not say which applies per value; compounds are trifluoroacetic acid salts. The protocol:
[^125I] IL-8 (human recombinant) was obtained from Amersham Pharmacia Biotech., with specific activity 2000 Ci/mmol. All other chemicals were of analytical grade. Human recombinant CXCR2 receptor expressed in Chinese hamster ovary cells (CHO-K1) was purchased from Euroscreen. The Chinese hamster ovary membranes were prepared according to protocol supplied by Euroscreen. Membrane protein concentration was determined using a Bio-Rad protein assay. Assays were performed in a 96-well micro plate format according the method described in White, et al., J Biol Chem., 1998, 273, 10095). Each reaction mixture contained 0.05 mg/ml CXCR2 membrane protein in 20 mM Bis-Tris-propane, pH 8.0, containing 1.2 mM MgSO4, 0.1 mM EDTA, 25 mM NaCl and 0.03% CHAPS. In addition, compound of interest was added which had been pre-dissolved in dimethylsulphoxide (DMSO) so as to reach a final concentration of between 10 μM and 0.0005 μM (final concentration of DMSO 2% (v/v)). Binding was initiated by addition of 0.02 nM ^125I-IL-8. After 2 hours at room temperature the plate was harvested using a Brandell™ 96-well harvester onto glass fibre filter plate (GF/c) blocked with 1% polyethyleneimine+0.5% BSA and washed 3 times with 25 mM NaCl, 10 mM TrisHCl, 1 mM MgSO4, 0.5 mM EDTA, 0.03% CHAPS, pH 7.4. The filter was dried at 50° C. overnight. Backseal was then applied to the plate and 50 μl of liquid scintillation fluid added. The counts were then measured on the Packard Topcount™ scintillation counter.
[^35S]-GTPγS Binding Assay for Human CXCR2 Receptor Using SPA Technology
[^35S]-GTPγS (with specific activity 1082 Ci/mmol) and wheat germ agglutinin poly vinyl toluene scintillation proximity beads were purchased from Amersham Pharmacia Biotech. The Chinese hamster ovary cell (CHO-K1) membranes expressing human CXCR2 receptors were purchased from Biosignal Packard Inc. All other chemicals were of analytical grade. White non-binding surface 96 well Optiplate™ microplates were obtained from Packard. Recombinant human IL-8 was synthesised, cloned and expressed in Escherichia coli as described previously (Lindley I, et al., Proc. Natl. Acad. Sci., 1988, 85(23):9199).
The assay was performed in duplicate in 96 well Optiplate™ microplate in a final volume of 250 μl per well. Compounds were diluted in DMSO (0.5% final concentration) and incubated in 20 mM HEPES buffer pH 7.4 containing 10 mM MgCl2, 100 mM NaCl, 1 mM EDTA plus 100 nM IL-8, 50 VM GDP and 500 pM [^35S]GTPγS per well. SPA beads (1 mg/well final concentration) were pre-mixed with the membranes ([…] final concentration) in assay buffer: 20 mM HEPES buffer pH 7.4 containing 10 mM MgCl2, 100 mM NaCl, 1 mM EDTA. The bead membrane mixture was then added to each well, plates were sealed and incubated at room temperature for 60 minutes. After which time the plate was centrifuged and immediately read on Packard TopCount™ scintillation counter, program [^35S dpm] for 1 min/well. Data was expressed as the % response to 100 nM IL-8 minus basal.
Ki data and Kb data are determined in the aforementioned Receptor Binding and [^35S]-GTPγS Binding Assays respectively.
Turning to `O=C(O)c1cc(-c2ccoc2)cc2nc(Nc3cccc(Cl)c3Cl)[nH]c12` [Example 10], the Ki came out at 1500 nM.
In the case of `Cc1c(F)cccc1Nc1nc2cccc(C(=O)O)c2[nH]1` [Example 3] it was 800 nM; in that of `Cn1ccc(-c2cc(C(=O)O)c3[nH]c(Nc4cccc(Cl)c4Cl)nc3c2)n1` [Example 12], 1800 nM.
For `O=C(O)c1cc(F)cc2nc(Nc3cccc(Cl)c3Cl)[nH]c12` [Example 1, 2-(2,3-Dichloro-phenylamino)-6-fluoro-3H-benzoimidazole-4-carboxylic acid], the Ki was 200 nM.
With `O=C(O)c1cccc2nc(Nc3ccccc3-c3ccccc3)[nH]c12` [Example 5] the figure was 1200 nM.
